One assay concerns the target T1, human NAMPT (Homo sapiens, UniProt P43490).
T1 construct: N-terminally His6-tagged recombinant full length human NAMPT; His6 (N); made in house; host or cells: E. coli
Nature of the assay: NAMPT biochemical assay (hNAMPT IC50), cascade assay with NMNAT1 and NAD/NADH-Glo detection. As to conditions: Table 2; replicate values on separate lines. The source says:
NAMPT Biochemical Assay (hNAMPT IC50)
Nicotinamide phosphoribosyltransferase (NAMPT) inhibitory activity of compounds of the present invention was quantified employing a cascade assay as described in the following paragraphs. The assay couples the conversion of nicotinamide (NAM) to nicotinamide mononucleotide (NMN) by NAMPT with the conversion of NMN to […] adenine dinucleotide (NAD^+) by nicotinamide mononucleotide adenylyltransferase 1 (NMNAT1) and the subsequent quantification of the generated NAD^+ by a commercial detection kit (NAD/NADH-Glo™ Assay from Promega, #G9072).
N-terminally His6-tagged recombinant full length human NAMPT and N-terminally His6-tagged recombinant full length human NMNAT1, both expressed in E. coli and purified via Ni-NTA-affinity chromatography and consecutive size exclusion chromatography, were used as enzymes.
For the assay 50 nl of a 100 fold concentrated solution of the test compound in DMSO was pipetted into a white low volume 384 well microtiter plate (Greiner Bio-One, Frickenhausen, Germany), 2.5 μl of a solution of NAMPT in aqueous NMNAT1-containing assay buffer [50 mM Tris/HCl pH 7.5, 12 mM MgCl2, 0.6 mM adenosine-tri-phosphate (ATP), 1 nM NMNAT1, 0.02% (w/v) bovine serum albumin (Sigma-Aldrich #P7906), 0.001% (v/v) Tween-20 (Sigma-Aldrich #P7949)] were added and the mixture was incubated for 15 min at 22° C. to allow pre-binding of the test compounds to the enzyme before the start of the enzyme reaction. Then the reaction was started by the addition of 2.5 μl of a solution of NAM (300 nM=>final conc. in the 5 μl assay volume is 150 nM, Sigma-Aldrich #^47865) and 5-phosphorylribose-1-pyrophosphate pentasodium salt (PRPP, 1.2 μM=>final conc. in the 5 μl assay volume is 0.6 μM, Sigma-Aldrich P8296) in assay buffer and the resulting mixture was incubated for a reaction time of 20 min at 22° C. The concentration of NAMPT was adjusted depending of the activity of the enzyme lot and was chosen appropriate to have the assay in the linear range, typical final concentration in the 5 μl assay volume was 0.16 nM.
The resulting mixture was incubated 2 h at 22° C. to allow a steady-state of the detection system. Subsequently the generated luminescence was measured in a suitable luminescence reader, e.g. a Viewlux™ (Perkin-Elmer), and taken as a measure for the generated NAD^+.

The next assay has as its system U251 MG. The assay can be described thus: Cell proliferation assay, Cell Titer Glo (CTG) method, U251 MG. The format is cell-based. Particulars: Homo sapiens, U-251, 72 h, Table 2. As to the method: (§1) Cell Proliferation Assay for Nampt-ADCs and Nampt-SMOLs
(§2) Cell Titer Glo (CTG) Method
(§3) To this end, 75 μL per well CTG solution (Promega, catalog #G755B and G756B) was added to cells in sister plates, incubated for 10 min, and luminescence was measured on a VICTOR V instrument (Perkin Elmer). After incubation for either 72 or 96 hrs (Table 1) in the presence of test compounds, 100 μl per well CTG solution was added to all test wells, incubated for 10 min and luminescence was measured on a VICTOR V instrument. […] The DRC software is a Biobook Spreadsheet that was developed by Bayer AG and Bayer Business Services on the IDBS E-Workbook Suite platform (IDBS: ID Business Solutions Ltd., Guildford, UK).
(In general: In ATP-based viability assays light output follows the ATP content of the culture.)

A further assay has as its system A549 C4.4a B4. Nature of the assay: Cell proliferation assay, Cell Titer Glo (CTG) method, A549 C4.4a B4. The class given is cell-based, human. As to the method: as §1, §2, §3
The subject of the next assay is THP-1. The assay can be described thus: Cell proliferation assay, Cell Titer Glo (CTG) method, THP-1. The format is cell-based, human. As to conditions: Homo sapiens, THP-1; Table 2; 72 h. The method, then: as §1, §2, §3
In another assay the test system is MDA-MB-453. Nature of the assay: Cell proliferation assay, Cell Titer Glo (CTG) method, MDA-MB-453. The class given is cell-based. The method, then:
as §1, §2, §3

Where [1] appears, read: Homo sapiens, A549, 72 h, Table 2, read-out: A549 C4.4a B4 72 h IC50.
[2] abbreviates: Homo sapiens, MDA-MB-453, 72 h, Table 2, read-out: MDA-MB-453 72 h IC50.
The mark [3] stands for this setting: Table 2, 72 h, read-out: A549 C4.4a B4 72 h IC50.

pIC50: −log10 of the molar value. Values joined by “and” are separate entries in the source; they are usually repeats but may differ in a detail not shown here. Equal values may be shown once. Read-outs that look alike come from different tables or passages of the source.

From US20200360531A1, “ANTIBODY DRUG CONJUGATES (ADCS) WITH NAMPT INHIBITORS” (Bayer Aktiengesellschaft, priority 2018, published 2020) come the findings set out here.

T1 sequence (P43490 whole entry): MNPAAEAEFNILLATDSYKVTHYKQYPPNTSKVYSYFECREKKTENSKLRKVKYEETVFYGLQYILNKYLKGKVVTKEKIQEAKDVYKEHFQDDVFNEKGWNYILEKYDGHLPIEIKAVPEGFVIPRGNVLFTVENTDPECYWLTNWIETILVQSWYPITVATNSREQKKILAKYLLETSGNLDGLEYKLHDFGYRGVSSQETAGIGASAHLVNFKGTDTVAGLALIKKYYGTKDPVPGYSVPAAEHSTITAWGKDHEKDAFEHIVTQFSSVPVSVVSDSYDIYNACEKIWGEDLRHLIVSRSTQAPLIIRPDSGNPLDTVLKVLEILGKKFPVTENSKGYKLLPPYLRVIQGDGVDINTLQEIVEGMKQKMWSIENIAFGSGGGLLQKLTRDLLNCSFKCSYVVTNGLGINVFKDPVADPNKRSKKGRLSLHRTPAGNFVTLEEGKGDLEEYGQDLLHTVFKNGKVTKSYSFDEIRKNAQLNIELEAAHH

Regarding `N[C@@H](CSC1CC(=O)N(CCCCCC(=O)NCCCCCCn2nc(-c3ccc(NC(=O)N4Cc5ccncc5C4)cc3)cc(-c3cccc4ncccc34)c2=O)C1=O)C(=O)O` (stereo partly drawn) [Example 29M, S-{1-[6-({6-[3-{4-[(1,3-Dihydro-2H-pyrrolo[3,4-c]pyridine-2-carbonyl)amino]phenyl}-6-oxo-5-(quinolin-5-yl)pyridazin-1(6H)-yl]hexyl}amino)-6-oxohexyl]-2,5-dioxopyrrolidin-3-yl}-L-cysteine], at human NAMPT, the pIC50 is 9.36 and 9.20.

On to `Cc1nnc(C2CC(c3ccc(NC(=O)N4Cc5ccncc5C4)cc3)=NN(CCCCCCN)C2=O)o1` (stereo not drawn) [Example 11, N-{4-[1-(6-Aminohexyl)-5-(5-methyl-1,3,4-oxadiazol-2-yl)-6-oxo-1,4,5,6-tetrahydropyridazin-3-yl]phenyl}-1,3-dihydro-2H-pyrrolo[3,4-c]pyridine-2-carboxamide], for which the pIC50 on human NAMPT is 9.50 and 9.42; in the assay on U251 MG, 8.55; with A549 C4.4a B4 (setting [1]) it was below 6.52; in the assay with THP-1, above 11.52.

Consider “[(32S,39S)-39-carboxy-32-({6-[(5S)-3-{4-[(1,3-dihydro-2H-pyrrolo[3,4-c]pyridine-2-carbonyl)amino]phenyl}-6-oxo-5-(quinolin-5-yl)-5,6-dihydropyridazin-1(4H)-yl]hexyl}carbamoyl)-26,34,37-trioxo-2,5,8,11,14,17,20,23-octaoxa-27,33,36-triazanonatriacontan-39-yl]sulfanediyl [Example 36Db]”, for which the pIC50 with MDA-MB-453 (Table 3 (ADCs), DSMZ cells, 72 h, read-out: MDA-MB-453 DSMZ 72 h IC^50) was 8.14; in the assay on A549 C4.4a B4 (Table 3 (ADCs), 72 h, read-out: A549 C4.4a 72 h IC^50) it was 8.50.

Consider “2 or 3-{[(2R)-2-Amino-2-carboxyethyl]sulfanyl}-4-{[2-({6-[3-{4-[(1,3-dihydro-2H-pyrrolo[3,4-c]pyridine-2-carbonyl)amino]phenyl}-6-oxo-5-(quinolin-5-yl)pyridazin-1(6H)-yl]hexyl}amino)-2-oxoethyl]amino}-4-oxobutanoic Acid [Example 31M]”, for which the pIC50 at human NAMPT is 9.59 and 9.51.

For the compound `O=C(Nc1ccc(C2=NNC(=O)[C@@](c3cccc4ncccc34)(C(F)(F)F)C2)cc1)N1Cc2ccncc2C1` [Example 12, N-{4-[(5R)-6-oxo-5-(quinolin-5-yl)-5-(trifluoromethyl)-1,4,5,6-tetrahydropyridazin-3-yl]phenyl}-1,3-dihydro-2H-pyrrolo[3,4-c]pyridine-2-carboxamide], the pIC50 is 9.27 and 9.26 at human NAMPT; above 10.52 in the assay on U251 MG; 9.33 with A549 C4.4a B4 (setting [1]); above 11.52 in the assay on THP-1.

For `NCCCCN1N=C(c2ccc(NC(=O)N3Cc4ccncc4C3)cc2)CC(c2cccc3ncccc23)C1=O` (stereo not drawn) [Example 2, N-{4-[1-(4-Aminobutyl)-6-oxo-5-(quinolin-5-yl)-1,4,5,6-tetrahydropyridazin-3-yl]phenyl}-1,3-dihydro-2H-pyrrolo[3,4-c]pyridine-2-carboxamide], the pIC50 at human NAMPT is 9.46 and 9.44.

With `NCCCCCCN1N=C(c2ccc(NC(=O)N3Cc4ccncc4C3)cc2)CC(c2cccc3ncccc23)(C(F)(F)F)C1=O` (stereo not drawn) [Example 15, N-{4-[1-(6-Aminohexyl)-6-oxo-5-(quinolin-5-yl)-5-(trifluoromethyl)-1,4,5,6-tetrahydropyridazin-3-yl]phenyl}-1,3-dihydro-2H-pyrrolo[3,4-c]pyridine-2-carboxamide], the pIC50 at human NAMPT was 9.51 and 9.44; in the assay on MDA-MB-453 (setting [2]), above 10.52.

Turning to “N-[2 or 3-{[(2R)-2-amino-2-carboxyethyl]sulfanyl}-3-carboxypropanoyl]glycyl-N-{6-[3-{4-[(1,3-dihydro-2H-pyrrolo[3,4-c]pyridine-2-carbonyl)amino]phenyl}-6-oxo-5-(quinolin-5-yl)-5,6-dihydropyridazin-1(4H)-yl]hexyl}-N^6-(26-oxo-2,5,8,11,14,17,20,23-octaoxahexacosan-26-yl)-L-lysinamide [Example 36M]”, the pIC50 against human NAMPT was 8.99 and 8.98; with MDA-MB-453 (Table 2, 72 h, read-out: MDA-MB-453 72 h IC50), 7.74; with A549 C4.4a B4 (setting [3]) it was 6.52.

With `NCCCCCCN1N=C(c2ccc(NC(=O)N3Cc4ccncc4C3)cc2)CC(c2cccc3ncccc23)C1=O` (stereo not drawn) [Example 3, N-{4-[1-(6-Aminohexyl)-6-oxo-5-(quinolin-5-yl)-1,4,5,6-tetrahydropyridazin-3-yl]phenyl}-1,3-dihydro-2H-pyrrolo[3,4-c]pyridine-2-carboxamide], on human NAMPT, the pIC50 was 9.68 and 9.67.

With `O=C(Nc1ccc(-c2cc(-c3ccc4[nH]ncc4c3)c(=O)n(CC(F)(F)F)n2)cc1)N1Cc2ccncc2C1` [Example 22, N-{4-[5-(1H-indazol-5-yl)-6-oxo-1-(2,2,2-trifluoroethyl)-1,6-dihydropyridazin-3-yl]phenyl}-1,3-dihydro-2H-pyrrolo[3,4-c]pyridine-2-carboxamide], the pIC50 on human NAMPT was 9.95 and 9.84; in the assay with MDA-MB-453 (setting [2]) it was above 10.52; in the assay on A549 C4.4a B4 (setting [1]) it was 8.31.

Regarding `O=C(Nc1ccc(C2=NNC(=O)C(c3cccc4ncccc34)(C(F)(F)F)C2)cc1)N1Cc2ccncc2C1` (racemic) [Example 14, N-{4-[6-oxo-5-(quinolin-5-yl)-5-(trifluoromethyl)-1,4,5,6-tetrahydropyridazin-3-yl]phenyl}-1,3-dihydro-2H-pyrrolo[3,4-c]pyridine-2-carboxamide], the pIC50 against human NAMPT is 9.50 and 9.41.

For `NCCCCCCN1N=C(c2ccc(NC(=O)N3Cc4ccncc4C3)cc2)CC(c2ccc3cccnc3c2)C1=O` (stereo not drawn) [Example 45, N-{4-[1-(6-Aminohexyl)-6-oxo-5-(quinolin-7-yl)-1,4,5,6-tetrahydropyridazin-3-yl]phenyl}-1,3-dihydro-2H-pyrrolo[3,4-c]pyridine-2-carboxamide hydrogen chloride], the pIC50 against human NAMPT is 9.65 and 9.62 and 9.56 and 9.46; in the assay with A549 C4.4a B4 (setting [1]) it was 7.49; in the assay on A549 C4.4a B4 (setting [3]), 7.30.

Consider `O=C(Nc1ccc(-c2cc(-c3cccc4[nH]cnc34)c(=O)[nH]n2)cc1)N1Cc2ccncc2C1` [Example 26, N-{4-[5-(1H-Benzimidazol-4-yl)-6-oxo-1,6-dihydropyridazin-3-yl]phenyl}-1,3-dihydro-2H-pyrrolo[3,4-c]pyridine-2-carboxamide], for which the pIC50 against human NAMPT was 9.78 and 9.68; in the assay with MDA-MB-453 (setting [2]) it was above 10.52; with A549 C4.4a B4 (setting [1]), 6.95.

Regarding `NCCCCn1nc(-c2ccc(NC(=O)N3Cc4ccncc4C3)cc2)cc(-c2cccc3ncccc23)c1=O` [Example 5, N-{4-[1-(4-Aminobutyl)-6-oxo-5-(quinolin-5-yl)-1,6-dihydropyridazin-3-yl]phenyl}-1,3-dihydro-2H-pyrrolo[3,4-c]pyridine-2-carboxamide], the pIC50 at human NAMPT was 9.83 and 9.75.

`O=C1NN=C(c2ccc(NC(=O)N3Cc4ccncc4C3)cc2)CC1c1cccc2ncccc12` (stereo not drawn) [Example 1, N-{4-[6-Oxo-5-(quinolin-5-yl)-1,4,5,6-tetrahydropyridazin-3-yl]phenyl}-1,3-dihydro-2H-pyrrolo[3,4-c]pyridine-2-carboxamide]: the pIC50 on human NAMPT is 8.97 and 8.92 and 8.90 and 8.86; in the assay with THP-1 it was above 11.52.

With `O=C(Nc1ccc(-c2cc(-c3cccc4ncccc34)c(=O)[nH]n2)cc1)N1Cc2ccncc2C1` [Example 4, N-{4-[6-Oxo-5-(quinolin-5-yl)-1,6-dihydropyridazin-3-yl]phenyl}-1,3-dihydro-2H-pyrrolo[3,4-c]pyridine-2-carboxamide], the pIC50 was 8.94 and 8.91 against human NAMPT; 9.84 in the assay with U251 MG; below 6.52 with A549 C4.4a B4 (setting [1]); 10.77 in the assay on THP-1.
